Experimental data taken from patent US11319289B2, “5-hydroxy pyridine-based compound for use as P2X1 and P2X3 receptor antagonist and pharmaceutical composition comprising same” (GWANGJU INSTITUTE OF SCIENCE AND TECHNOLOGY, priority 2017, dated 2022).
“And” between values parts separate entries of the source, which are not always exact repeats. Equal entries are not always repeated. Where two headings read alike, the source gives them in different places.

Assays:
Type in all cases: cell-based
[1] = molecular target: T1, mouse P2X1 receptor (mP2X1) (Mus musculus, UniProt P51576); test: Two-electrode voltage clamp assay, recombinant mP2X1 receptor in Xenopus oocytes; conditions: for inhibition at 10 µM / mP2X1 % inhibitory effect at 10 μM: 10 μM compound, mean±SEM n≥3 (footnote c); for inhibition at 10 µM: read-out: mP2X1 % inhibitory effect at 10 μM
T1 construct: expressed in transfected cells; host or cells: Xenopus oocytes (cRNA microinjection)
T1 sequence (P51576 1-399): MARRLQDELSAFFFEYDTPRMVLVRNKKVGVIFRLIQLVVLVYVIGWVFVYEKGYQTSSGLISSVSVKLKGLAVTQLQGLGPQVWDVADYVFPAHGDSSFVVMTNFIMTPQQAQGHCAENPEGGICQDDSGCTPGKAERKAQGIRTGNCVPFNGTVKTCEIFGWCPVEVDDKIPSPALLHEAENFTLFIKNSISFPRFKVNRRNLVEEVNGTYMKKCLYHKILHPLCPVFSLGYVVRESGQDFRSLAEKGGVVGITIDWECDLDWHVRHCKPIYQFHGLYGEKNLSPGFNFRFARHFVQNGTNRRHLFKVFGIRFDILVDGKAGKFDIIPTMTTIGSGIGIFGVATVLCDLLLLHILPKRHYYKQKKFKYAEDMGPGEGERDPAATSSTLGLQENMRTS
Experimental: (§1) 1-1. Two-Electrode Voltage Clamp Assay for Recombinant mP2X1 and hP2X3 Receptors
(§2) Xenopus oocytes were isolated and incubated with 270 U/mg of collagenase at 23 to 24° C. for 1.5 hours. Defolliculated oocytes were kept in Barth's solution at 18° C. After 1 day, the defolliculated oocytes were each microinjected cytosolically with mP2X1 and human P2X3 receptor cRNA ([…], 1 μg/mL), incubated for 24 hours at 18° C. in Barth's solution. The cRNA-injected oocytes were kept for 12 days at 4° C. ATP-activated membrane currents (Vh=−70 mV) were recorded from the cRNA-injected oocytes using the two-electrode voltage clamp technique (Axoclamp 2B amplifier). Voltage recording ([…] tip resistance) and current-recording microelectrodes (5 MΩ tip resistance) were filled with 3.0 M KCl. Oocytes were placed in an electrophysiological chamber continuously superfused with Ringer's solution (5 mL/min, at 18° C.) containing 110 mM NaCl, 2.5 mM KCl, 5 mM HEPES and 1.8 mM BaCl2, with pH adjusted to 7.5. To induce an evoked current, 2 μM ATP was superfused for 60 to 120 seconds and then washed for 20 min. For data analysis, the ATP-evoked current was normalized at pH 7.5. The compounds were introduced to the fixed oocytes 20 minutes prior to ATP exposure in the electrophysiological chamber. IC50 values (the concentration of the compound required to inhibit the ATP response by 50%) were determined by Hill plots designed using the Chemical Formula: log(I/Imax−1), where I is the current evoked by ATP in the presence of an antagonist. Data are presented as mean±SEM (n≥3) from different batches of oocytes.
(§3) In order to investigate the structure-activity relationship (SAR) of the compounds synthesized in the present invention, the antagonistic activity was evaluated by a two-electrode voltage clamp (TEVC) assay in Xenopus oocytes expressing the recombinant mP2X1 or hP2X3, respectively. The hP2X7R antagonistic activity was assessed using an ethidium ion accumulation assay in human HEK293 cells stably expressing the recombinant human P2X7R.

[2] = molecular target: T2, human P2X3 receptor (hP2X3) (Homo sapiens, UniProt P56373); test: Two-electrode voltage clamp assay, recombinant hP2X3 receptor in Xenopus oocytes; conditions: for inhibition at 1 µM: 1 μM compound, 2 μM ATP, mean±SEM n≥3 (footnote b), read-out: hP2X3 % inhibitory effect at 1 μM; for inhibition at 1 µM / IC50: Xenopus oocytes; for IC50: 2 μM ATP-evoked current, mean±SEM n≥3 (footnote d); for selectivity for hP2X3R to mP2X1R: hP2X3R versus mP2X1R
T2 construct: expressed in transfected cells; host or cells: Xenopus oocytes (cRNA microinjection)
T2 sequence (P56373 1-397): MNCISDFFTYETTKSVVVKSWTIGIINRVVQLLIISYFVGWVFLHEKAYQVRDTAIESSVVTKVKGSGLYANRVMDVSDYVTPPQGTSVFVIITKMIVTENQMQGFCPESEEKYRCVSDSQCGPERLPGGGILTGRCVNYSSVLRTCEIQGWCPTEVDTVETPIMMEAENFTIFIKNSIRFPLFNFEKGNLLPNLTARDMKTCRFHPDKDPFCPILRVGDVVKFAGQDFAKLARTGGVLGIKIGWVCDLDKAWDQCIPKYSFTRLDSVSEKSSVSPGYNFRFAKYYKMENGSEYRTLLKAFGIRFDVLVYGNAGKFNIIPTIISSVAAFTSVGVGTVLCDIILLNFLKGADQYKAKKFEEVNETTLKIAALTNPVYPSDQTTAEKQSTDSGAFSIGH
Experimental: as §1, §2, §3

[3] = molecular target: T3, human P2X7 receptor (hP2X7) (Homo sapiens, UniProt Q99572); test: Ethidium bromide accumulation assay in hP2X7-expressing HEK293 cells; conditions: for hP2X7 % inhibition of ethidium bromide accumulation: 10 μM compound with BzATP
T3 construct: expressed in transfected cells
T3 sequence (Q99572 1-595): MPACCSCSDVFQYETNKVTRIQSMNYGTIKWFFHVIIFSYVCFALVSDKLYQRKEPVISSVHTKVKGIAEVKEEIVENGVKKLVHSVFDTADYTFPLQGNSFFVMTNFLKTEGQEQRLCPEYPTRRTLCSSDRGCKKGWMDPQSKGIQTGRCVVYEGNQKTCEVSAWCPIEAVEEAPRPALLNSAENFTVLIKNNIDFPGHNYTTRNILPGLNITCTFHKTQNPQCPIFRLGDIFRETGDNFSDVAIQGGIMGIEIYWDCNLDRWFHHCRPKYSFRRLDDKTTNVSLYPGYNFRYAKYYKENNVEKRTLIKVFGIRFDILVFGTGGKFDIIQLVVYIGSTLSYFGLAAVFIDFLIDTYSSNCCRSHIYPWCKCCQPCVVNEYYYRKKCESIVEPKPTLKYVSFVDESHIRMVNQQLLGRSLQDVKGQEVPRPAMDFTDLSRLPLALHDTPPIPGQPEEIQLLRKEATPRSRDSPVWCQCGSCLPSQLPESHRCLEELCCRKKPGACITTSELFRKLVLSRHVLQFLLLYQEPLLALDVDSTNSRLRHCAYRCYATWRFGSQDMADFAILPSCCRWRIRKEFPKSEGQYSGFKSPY
Experimental: 1-2. Ethidium Bromide Accumulation Assay in hP2X-Expressing HEK293 Cells
HEK293 cells that are stably transfected with the human P2X7 receptor (P2X7R) were kept under a humidified atmosphere of 5% CO2 at 37° C. in DMEM supplemented with 10% (v/v) FBS, 2 mM L-glutamine and antibiotics (50 U/mL penicillin and 50 μg/ml streptomycin). BzATP-induced pore formation was measured using a fluorescence plate reader by measuring cellular absorption of ethidium in the hP2X7-expressing HEK293 cells. The hP2X7-expressing HEK293 cells were washed once with an appropriate assay buffer, and the buffer was also removed before subsequent analysis. All studies were performed at room temperature and the final assay volume was 100 μL. The cells were resuspended at 2.5×10^6 cells/mL in assay buffers consisting of 10 mM HEPES, 5 mM N-methyl-D-glucamine, 5.6 mM KCl, 10 mM D-glucose and 0.5 mM CaCl2 (pH 7.4) and supplemented with 280 mM sucrose or 140 mM NaCl.
In order to determine the antagonistic activity of the 5-hydroxyl-pyridine derivatives of the present invention and the reference compound (AZD9056), these compounds were added to the cells at a concentration of 10 μM with BzATP without pre-incubation. The cells were incubated for 2 hours under a humidified atmosphere of 5% CO2 at 37° C., and the absorption of ethidium dye was observed by measuring fluorescence with a Bio-Tek instrument FL600 fluorescent plate reader (excitation wavelength of 530 nm and emission wavelength of 590 nm). The results are expressed as a percentage relative to the maximum cumulative amount of ethidium bromide when stimulated with BzATP alone.
as §3

Row | SMILES | hP2X7 % inhibition of ethidium bromide accumulation [3] | mP2X1 % inhibitory effect at 10 μM ([1]; 2 μM ATP) | IC50 [2] | also measured
1 | O=C(Nc1cc(C(=O)Nc2ccc(S(=O)(=O)O)cc2S(=O)(=O)O)cc(C(=O)Nc2ccc(S(=O)(=O)O)cc2S(=O)(=O)O)c1)Nc1cc(C(=O)Nc2ccc(S(=O)(=O)O)cc2S(=O)(=O)O)cc(C(=O)Nc2ccc(S(=O)(=O)O)cc2S(=O)(=O)O)c1 [NF-449, reference compound] | – | – | – | IC50 ([1]; 2 μM ATP, read-out: mP2X1 (positive control, value in pM)): 307 ± 93 pM
2 | COc1ccc(CCc2nc(CC(C)C)c(O)c(C(=O)O)c2C(=O)O)cc1 [Compound 13g, 5-Hydroxy-6-isobutyl-2-(4-methoxyphenethyl)pyridine-3,4-dicarboxylic acid] | inactive | – | – | inhibition at 10 µM ([1]; 2 μM ATP): 23.4 ± 0.8%; inhibition at 1 µM [2]: 32%
3 | COc1ccc(CCc2cc(C(=O)O)c(O)c(C)n2)cc1 [Compound 22a, 3-Hydroxy-6-(4-methoxyphenethyl)-2-methylisonicotinic acid] | Inactive | Inactive^c | 681 ± 98 nM | –
4 | COc1ccc(CCc2nc(C(C)C)c(O)c(C(=O)O)c2C(=O)O)cc1 [Compound 13f, 5-Hydroxy-6-isopropyl-2-(4-methoxyphenethyl)pyridine-3,4-dicarboxylic acid] | inactive | – | 466 nM | inhibition at 10 µM ([1]; 2 μM ATP): 37.3 ± 8.2%
5 | COc1ccc(CCc2nc(C)c(O)c(-c3nnn[nH]3)c2C(=O)O)cc1 [Compound 17, 5-Hydroxy-2-(4-methoxyphenethyl)-6-methyl-4-(1H-tetrazol-5-yl)nicotinic acid] | inactive | Inactive^c | – | inhibition at 1 µM [2]: 27.3 ± 1.8%
6 | COc1ccc(CCc2nc(CCSC)c(O)c(C(=O)O)c2C(=O)O)cc1 [Compound 13k, 5-Hydroxy-2-(4-methoxyphenethyl)-6-(2-(methylthio)ethyl)pyridine-3,4-dicarboxylic acid] | inactive | Inactive^c | 287 ± 87 nM | –
7 | COc1ccc(CCc2ncc(O)c(C(=O)O)c2C(=O)O)cc1 [Compound 13a, 5-Hydroxy-2-(4-methoxyphenethyl)pyridine-3,4-dicarboxylic acid] | Inactive | – | 561 ± 99 nM | IC50 ([1]; 2 μM ATP-evoked current, mean±SEM n≥3 (footnote d), read-out: mP2X1 IC50): 236000 ± 78000 pM; selectivity for hP2X3R to mP2X1R [2]: non-selective
8 | COc1ccc(CCc2nc(C(=O)O)c(O)c(C(=O)O)c2C(=O)O)cc1 [Compound 13j, 3-Hydroxy-6-(4-methoxyphenethyl)pyridine-2,4,5-tricarboxylic acid] | Inactive | – | 319 ± 81 nM | inhibition at 10 µM ([1]; 2 μM ATP): 36.7 ± 2.8%
9 | CCCc1nc(Cc2cccc(Oc3ccccc3)c2)c(C)c(/C=C/C(=O)O)c1O [Compound 35, (E)-3-(3-Hydroxy-5-methyl-6-(3-phenoxybenzyl)-2-propylpyridin-4-yl)acrylic acid] | inactive | Inactive^c | – | inhibition at 1 µM [2]: < 50%
10 | CCCCc1nc(CCc2ccc(OC)cc2)c(C(=O)O)c(C(=O)O)c1O [Compound 13e, 6-Butyl-5-hydroxy-2-(4-methoxyphenethyl)pyridine-3,4-dicarboxylic acid] | inactive | – | 95 nM | inhibition at 10 µM ([1]; 2 μM ATP): 41.9 ± 9.1%; selectivity for hP2X3R to mP2X1R [2]: about 100 fold
11 | COc1ccc(CCc2nc(C)c(O)c(C(=O)O)c2C)cc1 [Compound 22b, 3-Hydroxy-6-(4-methoxyphenethyl)-2,5-dimethylisonicotinic acid] | inactive | Inactive^c | 384 nM and 385 nM | –
12 | COc1ccc(CCc2nc(CCc3ccccc3)c(O)c(C(=O)O)c2C(=O)O)cc1 [Compound 13i, 5-Hydroxy-2-(4-methoxyphenethyl)-6-phenethylpyridine-3,4-dicarboxylic acid] | inactive | Inactive^c | 742 ± 73 nM | –
13 | COc1ccc(CCc2nc(C)c(O)c(C(=O)O)c2C(=O)O)cc1 [Compound 13b, 5-Hydroxy-2-(4-methoxyphenethyl)-6-methylpyridine-3,4-dicarboxylic acid] | Inactive | – | – | selectivity for hP2X3R to mP2X1R [2]: non-selective
14 | CCCc1nc(Cc2cccc(Oc3ccccc3)c2)c(C)c(CN)c1O [Compound 41, 4-(Aminomethyl)-5-methyl-6-(3-phenoxybenzyl)-2-propylpyridin-3-ol] | inactive | inactive^c | – | inhibition at 1 µM [2]: < 50%
15 | O=C(NCC12CC3CC(CC(C3)C1)C2)c1cc(CCCNCCCO)ccc1Cl [AZD9056, reference compound] | – | – | – | IC50 ([3]; ethidium accumulation, read-out: hP2X7 (reference compound, value in nM)): 0.23 ± 0.11 nM
16 | CCCc1nc(Cc2cccc(Oc3ccccc3)c2)c(C)c(CCC(=O)O)c1O [Compound 37, 3-(3-Hydroxy-5-methyl-6-(3-phenoxybenzyl)-2-propylpyridin-4-yl)propanoic acid] | inactive | inactive^c | – | –
